This is an account of results in ChEMBL document CHEMBL1145654, “Phototoxic and Insecticidal Activities of Chromenes and Benzofurans from Encelia” (J Nat Prod, 1983).

Holding throughout (assay type): functional, organism-based
One experiment has as its system Pseudomonas fluorescens. Kind of experiment: Phototoxicity in 2 hrs UV irradiated Pseudomonas fluorescens measured after 24 hrs.
A further experiment deals with Saccharomyces cerevisiae. Kind of experiment: Phototoxicity in 2 hrs UV irradiated Saccharomyces cerevisiae measured after 24 hrs.
For another experiment, the system named is Bacillus subtilis. The experiment can be described thus: Phototoxicity in 2 hrs UV irradiated Bacillus subtilis measured after 24 hrs.
The test system of the next experiment is Candida albicans. The experiment can be described thus: Phototoxicity in 2 hrs UV irradiated Candida albicans measured after 24 hrs.
Another experiment deals with Staphylococcus. The experiment can be described thus: Phototoxicity in 2 hrs UV irradiated Staphylococcus albus measured after 24 hrs.
In a further experiment the test system is Escherichia coli. The experiment can be described thus: Phototoxicity in 2 hrs UV irradiated Escherichia coli measured after 24 hrs.
In experiment [1] the test system is Oncopeltus fasciatus. The experiment can be described thus: Antijuvenile hormone activity in first instar Oncopeltus fasciatus larvae at 5 mg to 100 ug/petri dish.
The test system of experiment [2] is Oncopeltus fasciatus. Kind of experiment: Insecticidal activity in first instar Oncopeltus fasciatus larvae at 5 mg/petri dish.
The test system of experiment [3] is Oncopeltus fasciatus. Kind of experiment: Insecticidal activity in first instar Oncopeltus fasciatus larvae at 1.2 mg/petri dish after 3 to 4 days.

Calls of active or inactive are those of the source. No cut-off for these calls is given here.

In the case of `COc1cc2c(cc1[C@](C)(O)CC(C)c1cc3cc(C(C)=O)c(O)cc3o1)C=CC(C)(C)O2` (stereo not given in full), the outcome with Pseudomonas fluorescens, with Saccharomyces cerevisiae, in the experiment with Bacillus subtilis, in the experiment on Candida albicans, in the experiment on Staphylococcus and with Escherichia coli was inactive.
As for `C=C(C)c1cc2cc(C(C)=O)c(OC)cc2o1`, the outcome in the experiment with Pseudomonas fluorescens, in the experiment with Saccharomyces cerevisiae, in the experiment with Bacillus subtilis and with Candida albicans was Active. The result in the experiment with Staphylococcus and in the experiment on Escherichia coli was inactive.
Regarding `CC(=O)c1cc2c(cc1O)OC(C)(C)C=C2`, the result in the experiment with Pseudomonas fluorescens, in the experiment with Oncopeltus fasciatus [1], in the experiment with Staphylococcus and in the experiment with Escherichia coli was inactive. For the same compound, the result with Saccharomyces cerevisiae, in the experiment on Bacillus subtilis, with Candida albicans and in the experiment with Oncopeltus fasciatus [2] was Active.
Regarding `COc1c2occc2cc2ccc(=O)oc12`, the outcome in the experiment on Pseudomonas fluorescens was inactive. Moreover, the outcome in the experiment on Saccharomyces cerevisiae, in the experiment with Bacillus subtilis, in the experiment with Candida albicans, with Staphylococcus and in the experiment on Escherichia coli was Active.
Consider `COc1cc2c(cc1C(C)=O)C=CC(C)(C)O2`, for which the outcome in the experiment with Pseudomonas fluorescens, in the experiment on Oncopeltus fasciatus [1], in the experiment with Staphylococcus and in the experiment with Escherichia coli was inactive. The result in the experiment with Saccharomyces cerevisiae, in the experiment with Oncopeltus fasciatus [3], in the experiment with Bacillus subtilis and in the experiment with Candida albicans was Active.
Consider `COc1cc2c(cc1OC)OC(C)(C)C=C2`, for which the outcome in the experiment with Pseudomonas fluorescens, with Saccharomyces cerevisiae, in the experiment with Bacillus subtilis, with Candida albicans, in the experiment with Oncopeltus fasciatus [1] and in the experiment on Staphylococcus was inactive. Further, in the experiment with Escherichia coli, the result was inactive.
On to `COc1ccc2c(c1)OC(C)(C)C=C2`, for which the result in the experiment with Pseudomonas fluorescens, in the experiment with Saccharomyces cerevisiae, with Bacillus subtilis, with Candida albicans, in the experiment with Oncopeltus fasciatus [1] and in the experiment with Staphylococcus was inactive. For the same compound, in the experiment on Escherichia coli, the outcome was inactive.
As to `C=C(C)c1cc2cc(C(C)=O)c(O)cc2o1`, the result with Pseudomonas fluorescens, with Saccharomyces cerevisiae, in the experiment on Bacillus subtilis, in the experiment with Candida albicans, with Oncopeltus fasciatus [1] and in the experiment with Staphylococcus was inactive. The result with Escherichia coli was inactive.
